For data set [1], the system named is micropatterned human pluripotent stem cell (μP-hPSC) colonies. The data set is described as follows: μP-hPSC model-based quantitative morphometric assay (disruption of annular mesoendoderm pattern). The class given is cell-based. The note with it: for DC value compared with known Cmax: DC in μP-hPSC model vs Cmax in human plasma; for Does DC < IC25H9?: comparison of DC with IC25 to H9 cells; for Morphologic cluster readouts across four test groups (one-way ANOVA, post-hoc): control, low, medium, high concentrations, day 3; for Teratogenicity classification in the μP-hPSC model: teratogenic if DC < IC25,H9; for DC (disruption concentration): lowest concentration which morphologically disrupts the mesoendoderm pattern vs non-treated control, 3-day mesoendoderm induction. The protocol:
(§1) The dose-dependent effect of each compound on the mesoendoderm pattern formation was determined by dosing at four test conditions: zero, low, medium and high drug concentrations (Fig. 3i). The cytotoxicity of each compound was evaluated in order to find the appropriate range of testing concentrations. […] The results would represent specific cytotoxicity to embryonic and adult cells respectively. Based on the cytotoxicity data, three drug concentrations (designated as low, medium and high) were selected such that the lowest concentration tested was not toxic to both H9 cells and aHDFs, and the highest concentration should not be cytotoxic to aHDFs. The tested concentration was considered as not cytotoxic if it was less than the drug’s 25% inhibitory concentration (IC25) to the tested cell line[25].
A series of imaging processing and statistical analysis were developed to quantitatively measure the teratogenic effects of each drug (Fig. 3). After three days of culture in the mesoendoderm induction medium, immunofluorescence images of T were acquired (Fig. 3ii). We employed similar image quantification algorithms previously used for analyzing collagen deposition patterns in fibrotic tissues[26] to extract 19 morphological attributes that describe the annular mesoendoderm pattern (Fig. 3iii). […] A dose response plot was then generated for each morphologic cluster (Fig. 3iv). One-way analysis of variance (ANOVA) was performed to determine whether there were significant morphologic differences among test groups for each drug (Fig. 3v).
This concentration was defined as the disruption concentration (DC). If DC < IC25,H9, we can infer that the drug is teratogenic, where it affects embryonic development without being cytotoxic to embryonic cells.
The readouts of each morphologic cluster across the four test groups (i.e. control, low, medium, high) were plotted for each drug and one-way ANOVA was performed to determine whether there were significant differences across the test groups (Supplementary Fig. S7–S11).
The autoclaved PDMS stencil was first sealed onto a 60 mm petri dish (Nunc) using 200 μl of 70% ethanol. After drying in the cell culture hood, 450 μl Matrigel^TM in DMEM/F12 (11330032, GIBCO) was then added into each stencil and incubated for 5 hr at 37 °C before use. To obtain single cell suspension, the hPSC culture was treated with Accutase (SCR005, Merck Millipore) for about 10 min, and the cells were resuspended in mTeSR1 medium supplemented with 10 μM Y27632 (688000, Calbiochem, Merck Millipore). The cells were seeded onto the PDMS stencils at 100% confluence density of 4444 cells/mm^2 and allowed to attach for 1 hr. The stencil was then removed and the unpatterned substrate was passivated by backfilling with 0.5% Pluronic F-127 (P2443–1KG, Sigma-Aldrich) in DMEM/F12. After 10 min incubation, the μP-hPSC colonies were washed 3 times with DMEM/F12 and incubated at least for 3 hr in mTeSR^TM1 medium supplemented with 10 μM Y27632 before changed to mTeSR^TM1 medium alone. Differentiation was initiated 24 hr post seeding and lasted for 3 days before collecting the samples. For phase contrast live imaging, images were acquired every 20 min by BioStation CT (Nikon) using 10X objective. The imaging period started since the induction of differentiation and lasted for 3 days.
Morphological feature extraction from T fluorescence images was done in MATLAB Image Processing Toolbox (Mathworks). First, the outline of the μP-hPSC colony was identified by intensity difference compared with background and its centroid position was determined.

Data set [2] deals with H9 human embryonic stem cells. Put plainly: Cytotoxicity assay (MTS) in H9 cells. The note with it: for IC25H9: 25% inhibitory concentration, H9 cells, 3 days, MTS viability; for Cytotoxicity of tested concentration to hPSCs: Thalidomide 800 μM, Penicillin G 200 μg/ml. In kind it is cell-based. The protocol: as §1
The cytotoxicity test was done in 96-well tissue culture plates with 100 μl of medium with or without the drug. For each drug, 8 concentrations with 5-fold dilution were tested together with the vehicle controls. For H9 cells, the plates were coated with Matrigel^TM before cell seeding. 10,000 hES cells or 1,000 aHDF cells were plated into each well and cultured for 3 days in the test solution with half change of the medium with or without the drug every day. On day 3, cell viability was measured using CellTiter 96® AQueous One Solution Cell Proliferation Assay (MTS, G3580, Promega). […] IC25 values were acquired from either logistic regression using OriginPro 9 or direct reading from the cytotoxicity curve.

The next data set relates to μP-hPSC colonies. Put plainly: Quantitative RT-PCR of germ layer markers in drug-treated μP-hPSC colonies. The note with it: day 3; for Expression levels of MIXL1, GSC, NKX2.5, FOXA2, PAX6 and NESTIN / Expression level of mesoendoderm marker T compared to untreated control colonies / SOX17 expression level compared with untreated control colonies: Thalidomide 800 μM, Penicillin G 200 μg/ml; for Expression levels of MIXL1, GSC, NKX2.5, FOXA2, PAX6 and NESTIN: untreated control. The class given is cell-based, human. From the text:
Therefore, we reasoned that measuring changes in the mesoendoderm pattern, which is an assimilation of multiple cellular processes, as an assay readout for teratogenic potential, is sufficiently sensitive and may show better specificity as compared to the expression levels of a panel of molecular biomarkers for differentiation.
Total RNA was extracted from the samples on day 3 of the differentiation using the RNeasy® Plus Micro Kit (74034, QIAGEN) according to manufacturer’s protocol. Then cDNA was synthesized from the extracted RNA using High Capacity RNA-to-cDNA Kit (4387406, Applied Biosystems, Life Technologies). To analyze the gene expression levels of each sample, quantitative RT-PCR was performed using FastStart Universal SYBR Green Master (ROX) (04913914001, Roche) on the ABI 7500 Fast Real-Time PCR system (Applied Biosystems, Life Technologies) according to the manufacturer’s standard protocol. The relative quantitative expressions values of target genes were normalized to GAPDH and expressed relative to the levels of undifferentiated hPSCs using the ΔΔCT method. All primers used were commercially validated primers from GeneCopoeia^TM except for MIXL1, GSC, E-cadherin, N-cadherin, VIM, TWIST and SNAIL. The primer sequences/Catalogue numbers can be found in Supplementary Information (Supplementary Table S3).

Data set [3] relates to adult human dermal fibroblasts (aHDFs). Put plainly: Cytotoxicity assay (MTS) in adult human dermal fibroblasts. In kind it is cell-based. The note with it: Thalidomide 800 μM; Penicillin G 200 μg/ml. The protocol: as §1
The cytotoxicity test was done in 96-well tissue culture plates with 100 μl of medium with or without the drug. For each drug, 8 concentrations with 5-fold dilution were tested together with the vehicle controls. For H9 cells, the plates were coated with Matrigel^TM before cell seeding. […] On day 3, cell viability was measured using CellTiter 96® AQueous One Solution Cell Proliferation Assay (MTS, G3580, Promega). […] IC25 values were acquired from either logistic regression using OriginPro 9 or direct reading from the cytotoxicity curve.

Details of data set [4]: method as in earlier work. Particulars: ref 30-34 (Table 1), Supplementary refs 1-5, cited from earlier work.
The subject of data set [5] is mouse embryonic stem cells (mESCs). The note with it: disruption of beating cardiomyocyte formation from mESCs; cited from earlier work.
For data set [6] the following is noted: human plasma, therapeutic dosing, cited from earlier work.

“Also recorded” adds a separate entry of the source. Read-outs that look alike come from different tables or passages of the source.

Data on 5 molecules can be found in article PMC4428054, “A method for human teratogen detection by geometrically confined cell differentiation and migration” (Scientific Reports, 2015).

The Cmax is the highest concentration seen after dosing.

For the molecule `CC1(C)S[C@@H]2[C@H](NC(=O)Cc3ccccc3)C(=O)N2[C@H]1C(=O)O` [Penicillin G], the “Mesoendoderm pattern position (CL6) in high concentration test group” value in data set [1] (1,000 μg/ml vs zero dose control, post-hoc p = 0.001) is “significant inward mesoenoderm pattern position toward the colony centre”. In data set [1], the “DC value compared with known Cmax” value is listed as “much higher”; the “Does DC < IC25H9?” value was “much higher and No”; the “Morphologic cluster readouts across four test groups (one-way ANOVA, post-hoc)” value is reported as “no significant differences among test groups in almost all morphologic clusters except CL6”; the “Teratogenicity classification in the μP-hPSC model” value is “Non-teratogenic”. For the same molecule, in data set [2], the IC25H9 was 787 µg/mL and the “Cytotoxicity of tested concentration to hPSCs” value is “non-cytotoxic”. Also, in the data set on μP-hPSC colonies, the “Expression levels of MIXL1, GSC, NKX2.5, FOXA2, PAX6 and NESTIN” value is recorded as “no significant differences”; the “Expression level of mesoendoderm marker T compared to untreated control colonies” value was “higher expression level”; the “SOX17 expression level compared with untreated control colonies” value is recorded as “no significant difference”. Further, the “Cytotoxicity of tested concentration to human adult fibroblasts” value in data set [3] is given as “non-cytotoxic”.

As to `CC(C)(S)[C@@H](N)C(=O)O` [D-penicillamine], in data set [1], the “DC value compared with known Cmax” value is recorded as “lower than or equal to”; the “Does DC < IC25H9?” value was “Yes”; the “Morphologic cluster readouts across four test groups (one-way ANOVA, post-hoc)” value was “significant dose-dependent morphologic disruptions of the mesoendoderm pattern”; the “DC (disruption concentration)” value came to 200 µg/mL. The “Teratogenicity classification in the μP-hPSC model” value in data set [1] is on record as “Teratogenic”. The molecule also came in with an IC25H9 in data set [2] of 278 µg/mL. Also, in data set [4], the “In vivo human data (teratogenicity)” value was “Teratogenic[32]”. Also, the “In vivo human data (teratogenicity)” value in data set [4] (listed as D-Penicillamine) is reported as “Teratogenic”. In addition, in data set [5], the “In mEST (teratogenicity classification)” value is recorded as “non-terotogenic; also recorded: Non-teratogenic”.

For `CC1=C(/C=C/C(C)=C/C=C/C(C)=C/C(=O)O)C(C)(C)CCC1` [RA, Retinoic acid], in data set [1], the “DC value compared with known Cmax” value is “lower than or equal to”; the “Does DC < IC25H9?” value is recorded as “Yes”; the “Morphologic cluster readouts across four test groups (one-way ANOVA, post-hoc)” value is on record as “significant dose-dependent morphologic disruptions of the mesoendoderm pattern”; the “DC (disruption concentration)” value amounted to 0.00036 µg/mL. The “Teratogenicity classification in the μP-hPSC model” value in data set [1] was “Teratogenic”. This molecule also showed an IC25H9 in data set [2] greater than 2 µg/mL. Besides, the “In vivo human data (teratogenicity)” value in data set [4] was “Teratogenic[31]”. The “In vivo human data (teratogenicity)” value in data set [4] (listed as Retinoic acid) is given as “Teratogenic”. In addition, the “In mEST (teratogenicity classification)” value in data set [5] was “Teratogenic”. In addition, in data set [6] (ref Muindi et al. (1992)), the Cmax is 347 ng/mL.

On to `CCCC(CCC)C(=O)O` [VPA, Valproic acid], for which, in data set [1], the “DC value compared with known Cmax” value is “lower than or equal to”; the “Does DC < IC25H9?” value is on record as “Yes”; the “Morphologic cluster readouts across four test groups (one-way ANOVA, post-hoc)” value is “significant dose-dependent morphologic disruptions of the mesoendoderm pattern”; the “DC (disruption concentration)” value is on record as 0.1 mM. Besides, in data set [2], the IC25H9 was found to be 130 µM. For the same molecule, in data set [4], the “In vivo human data (teratogenicity)” value is “Teratogenic”. In addition, in data set [6] (ref Reed et al. (2006), read-out: Cmax), the Cmax is 574 µM.

In the case of `O=C1CCC(N2C(=O)c3ccccc3C2=O)C(=O)N1` (centres unmarked) [Thalidomide], the “Collective cell migration trajectory (live imaging and kymograph)” value in data set [1] (Thalidomide 800 μM, Penicillin G 200 μg/ml, 3-day live imaging, vs untreated colonies) is “migrated much more towards the colony center”. The “Mesoendoderm pattern morphology (T+ cells) after 3 days” value in data set [1] (Thalidomide 800 μM, Penicillin G 200 μg/ml, vs untreated colonies) was “much wider mesoendoderm pattern that was displaced towards the colony center”. Further, in data set [1], the “Does DC < IC25H9?” value was “Yes”; the “Morphologic cluster readouts across four test groups (one-way ANOVA, post-hoc)” value is “significant dose-dependent morphologic disruptions of the mesoendoderm pattern”; the “DC (disruption concentration)” value turned out to be 0.03 mM; the “Teratogenicity classification in the μP-hPSC model” value is on record as “Teratogenic”. Moreover, in data set [2], the IC25H9 is greater than 1000 µM and the “Cytotoxicity of tested concentration to hPSCs” value is “non-cytotoxic”. The “Expression level of definitive endoderm marker SOX17 compared with Penicillin G-treated colonies” value in the data set on μP-hPSC colonies (Thalidomide 800 μM vs Penicillin G 200 μg/ml) is “significantly lower”. Moreover, in the data set with μP-hPSC colonies, the “Expression levels of MIXL1, GSC, NKX2.5, FOXA2, PAX6 and NESTIN” value is “no significant differences”; the “Expression level of mesoendoderm marker T compared to untreated control colonies” value was “higher expression level”; the “SOX17 expression level compared with untreated control colonies” value is reported as “no significant difference”. The “Cytotoxicity of tested concentration to human adult fibroblasts” value in data set [3] was “non-cytotoxic”. Besides, the “In vivo human data (teratogenicity)” value in data set [4] was “Teratogenic[30]”. The “In mEST (teratogenicity classification)” value in data set [5] is given as “cannot be detected”. Also, the Cmax in data set [6] (ref Teo et al. (2004), read-out: Cmax) is 10.9 µM.
